Assay results published in patent US10781236B2, “Bacteriocin composition and method” (priority 2015, dated 2020).

What was measured:
L. lactis LMGT 2081 = experiment: Relative MIC, inhibitory spectrum; type: cell-based, Lactococcus lactis; conditions: relative to L. lactis IL 1403 = 1
E. faecium LMGT 2783 = experiment: Relative MIC, inhibitory spectrum; type: cell-based, Enterococcus faecium; conditions: relative to L. lactis IL 1403 = 1
L. lactis LMGT 3419 = experiment: Relative MIC, inhibitory spectrum; type: cell-based, Lactococcus lactis; conditions: relative to L. lactis IL 1403 = 1
S. salivarius = experiment: Antimicrobial activity against problematic bacteria; type: cell-based, Streptococcus salivarius; conditions: clinical sources
Experimental: (§1) To screen for bacteriocin producers with broad inhibition spectra (BIS), Lactococcus lactis, Lactobacillus sakei, Lactobacillus plantarum, Listeria innocua, and Staphylococcus aureus from the food and dairy environment were used as indicators in the first round of screening. The antimicrobial screening was performed using the agar diffusion bioassay as previously described (Holo et al., 1991, J. Bacteriol., 173, p 3879-3887). Briefly, indicator cells from overnight cultures were diluted 100-fold in 5 mL of BHI soft agar and plated out as a lawn on BHI agar plates. Potential bacteriocin producers at volumes of 3 μL were spotted on the indicator lawn and then incubated at appropriate temperatures for 24 h for cell growth and cell inhibition. Inhibition was detected as clear zones around the spotted cells.
(§2) As the antimicrobial activity of garvicin KS is relatively broad, we explored further its potential to kill a larger panel of important pathogens. The list contained 147 problematic or potentially problematic bacteria of species belonging to Listeria, Staphylococcus, Streptococcus and Enterococcus, isolated from food and clinical sources. In this assay, we compared the antimicrobial activity of garvicin KS with that of garvicin ML and nisin, the last one being known as a broad inhibition-spectrum bacteriocin (AIKhatib et al., 2014, PLOS One 9:e102246 doi:10.1371/joumal.pone.0102246). […]

E. faecium = experiment: as above; type: cell-based, Enterococcus faecium; conditions: food sources
Experimental: as §1, §2

[1] = system: L. monocytogenes LMGT 2650; experiment: Relative MIC, inhibitory spectrum; type: cell-based, Listeria monocytogenes; conditions: relative to L. lactis IL 1403 = 1
L. lactis LMGT 2130 = experiment: Relative MIC, inhibitory spectrum; type: cell-based, Lactococcus lactis; conditions: relative to L. lactis IL 1403 = 1
[2] = system: Staphylococcus aureus LMGT 3022; experiment: Relative MIC, inhibitory spectrum; type: cell-based; conditions: relative to L. lactis IL 1403 = 1
L. plantarum LMGT 2357 = experiment: Relative MIC, inhibitory spectrum; type: cell-based, Lactobacillus plantarum; conditions: relative to L. lactis IL 1403 = 1
P. pentosaceus LMGT 2366 = experiment: Relative MIC, inhibitory spectrum; type: cell-based, Pediococcus pentosaceus; conditions: relative to L. lactis IL 1403 = 1
[3] = system: Enterococcus avium LMGT 3465; experiment: Relative MIC, inhibitory spectrum; type: cell-based; conditions: relative to L. lactis IL 1403 = 1
[4] = system: Lactobacillus curvatus LMGT 2353; experiment: Relative MIC, inhibitory spectrum; type: cell-based; conditions: relative to L. lactis IL 1403 = 1
L. innocua = experiment: Antimicrobial activity against problematic bacteria; type: cell-based, Listeria innocua; conditions: food sources
Experimental: as §1, §2

[5] = system: 53 strains of different genera in the Firmicutes family; experiment: Inhibitory spectrum, whole panel of Table 3; type: cell-based; conditions: 53 strains of Table 3
Source text: A more extended comparison between the bacteriocin activity of L. garvieae KS 1546 (termed garvicin KS) and L. garvieae DCC 43 (garvicin ML producer) can also be seen in Table 3.

L. curvatus LMGT 2371 = experiment: Relative MIC, inhibitory spectrum; type: cell-based, Lactobacillus curvatus; conditions: relative to L. lactis IL 1403 = 1
L. seelingeri = experiment: Antimicrobial activity against problematic bacteria; type: cell-based, Listeria seelingeri; conditions: food sources
Experimental: as §1, §2

[6] = system: L. monocytogenes LMGT 2604; experiment: Relative MIC, inhibitory spectrum; type: cell-based, Listeria monocytogenes; conditions: relative to L. lactis IL 1403 = 1
L. lactis IL1403 = experiment: Relative MIC, inhibitory spectrum; type: cell-based, Lactococcus lactis; conditions: the reference indicator, referred to as 1
S. aureus LMGT 3265 = experiment: Relative MIC, inhibitory spectrum; type: cell-based, Staphylococcus aureus; conditions: relative to L. lactis IL 1403 = 1
L. monocytogenes = experiment: Antimicrobial activity against problematic bacteria; type: cell-based, Listeria monocytogenes
Experimental: as §1, §2

L. plantarum LMGT 2379 = experiment: Relative MIC, inhibitory spectrum; type: cell-based, Lactobacillus plantarum; conditions: relative to L. lactis IL 1403 = 1
P. pentosaceus LMGT 2001 = experiment: Relative MIC, inhibitory spectrum; type: cell-based, Pediococcus pentosaceus; conditions: relative to L. lactis IL 1403 = 1
L. grayi = experiment: Antimicrobial activity against problematic bacteria; type: cell-based, Listeria grayi; conditions: food sources
Experimental: as §1, §2

L. Sakei LMGT 2799 = experiment: Relative MIC, inhibitory spectrum; type: cell-based, Lactobacillus sakei; conditions: relative to L. lactis IL 1403 = 1
[7] = system: 147 problematic or potentially problematic bacteria of Listeria, Staphylococcus, Streptococcus and Enterococcus; experiment: Antimicrobial activity against problematic bacteria, whole panel; type: cell-based; conditions: for number of sensitive strains / number of strains tested: Total
Experimental: as §1
As the antimicrobial activity of garvicin KS is relatively broad, we explored further its potential to kill a larger panel of important pathogens. The list contained 147 problematic or potentially problematic bacteria of species belonging to Listeria, Staphylococcus, Streptococcus and Enterococcus, isolated from food and clinical sources. In this assay, we compared the antimicrobial activity of garvicin KS with that of garvicin ML and nisin, the last one being known as a broad inhibition-spectrum bacteriocin (AIKhatib et al., 2014, PLOS One 9:e102246 doi:10.1371/joumal.pone.0102246). […] In all cases, garvicin KS was either equal or better than nisin, regardless of whether the isolates were from clinical or food environments, except for the activity toward clinical isolates of S. aureus where nisin appeared marginally better (24/25 for nisin and 23/25 for KS).

S. agalactia = experiment: Antimicrobial activity against problematic bacteria; type: cell-based, Streptococcus agalactia; conditions: clinical sources
Experimental: as §1, §2

[8] = system: Leuconostoc gelidium LMGT 2386; experiment: Relative MIC, inhibitory spectrum; type: cell-based; conditions: relative to L. lactis IL 1403 = 1
L. Sakei LMGT 2380 = experiment: Relative MIC, inhibitory spectrum; type: cell-based, Lactobacillus sakei; conditions: relative to L. lactis IL 1403 = 1
E. faecalis LMGT 2333 = experiment: Relative MIC, inhibitory spectrum; type: cell-based, Enterococcus faecalis; conditions: relative to L. lactis IL 1403 = 1
L. lactis LMGT 2705 = experiment: Relative MIC, inhibitory spectrum; type: cell-based, Lactococcus lactis; conditions: relative to L. lactis IL 1403 = 1
L. plantarum LMGT 2352 = experiment: Relative MIC, inhibitory spectrum; type: cell-based, Lactobacillus plantarum; conditions: relative to L. lactis IL 1403 = 1
[9] = system: Pediococcus acidilactici LMGT 2002; experiment: Relative MIC, inhibitory spectrum; type: cell-based; conditions: relative to L. lactis IL 1403 = 1
E. faecalis = experiment: Antimicrobial activity against problematic bacteria; type: cell-based, Enterococcus faecalis
Experimental: as §1, §2

L. Sakei LMGT 2361 = experiment: Relative MIC, inhibitory spectrum; type: cell-based, Lactobacillus sakei; conditions: relative to L. lactis IL 1403 = 1

Substance: garvicin ML
- Relative MIC value (L. lactis LMGT 2081): ≤0.25
- Relative MIC value (E. faecium LMGT 2783): 64
- Relative MIC value (L. lactis LMGT 3419): ≤0.25
- number of sensitive strains / number of strains tested (S. salivarius): 1/1
- number of sensitive strains / number of strains tested (E. faecium): 7/7
- Relative MIC value [1]: 64
- Relative MIC value (L. lactis LMGT 2130): 8
- Relative MIC value [2]: 512
- Relative MIC value (L. plantarum LMGT 2357): 64
- Relative MIC value (P. pentosaceus LMGT 2366): 64
- Relative MIC value [3]: ≤0.25
- Relative MIC value [4]: 16
- number of sensitive strains / number of strains tested (L. innocua): 1/6
- number of sensitive strains (n) among 53 strains [5]: 39
- sensitive portion of 53 strains [5]: about 74%
- Relative MIC value (L. curvatus LMGT 2371): 32
- number of sensitive strains / number of strains tested (L. seelingeri): 0/1
- Relative MIC value [6]: 32
- Relative MIC value (L. lactis IL1403): 1
- Relative MIC value (S. aureus LMGT 3265): ≥512
- number of sensitive strains / number of strains tested (L. monocytogenes; clinical sources): 0/4
- number of sensitive strains / number of strains tested (L. monocytogenes; food sources): 0/20
- Relative MIC value (L. plantarum LMGT 2379): 32
- Relative MIC value (P. pentosaceus LMGT 2001): 16-32
- number of sensitive strains / number of strains tested (L. grayi): 0/2
- Relative MIC value (L. Sakei LMGT 2799): 8-16
- portion of the 147 strains killed ([7]; 147 strains, clinical and food): 34.6%
- strains killed among the 147 strains tested ([7]; 147 strains, clinical and food): 51 strains
- number of sensitive strains / number of strains tested ([7]; clinical sources): 12/34
- number of sensitive strains / number of strains tested ([7]; food sources): 39/113
- number of sensitive strains / number of strains tested (S. agalactia): 1/1
- Relative MIC value [8]: 32-64
- Relative MIC value (L. Sakei LMGT 2380): 32
- Relative MIC value (E. faecalis LMGT 2333): 64-128
- Relative MIC value (L. lactis LMGT 2705): ≤0.25
- Relative MIC value (L. plantarum LMGT 2352): 16
- Relative MIC value [9]: 32
- number of sensitive strains / number of strains tested (E. faecalis; clinical sources): 0/2
- number of sensitive strains / number of strains tested (E. faecalis; food sources): 18/40
- Relative MIC value (L. Sakei LMGT 2361): 32
